Assay results taken from article PMC12461331, “Screening of Medicines for Malaria Venture Open Boxes Identifies Potent SARS-CoV‑2 Papain-like Protease (PL^pro) Inhibitors” (ACS Omega, 2025).
Where “and” joins values, the source holds several entries; their conditions need not be identical. Equal values may be shown once. Where a name gives a salt, the structure may show the parent alone. Read-outs that look alike come from different tables or passages of the source.

How the values were obtained:
HeLa-ACE2 cells [1] = conditions: for Data Mode / S0 / Sinf / nHill: Hela-ACE2 CoV-2 Total Cell count; for S0 / Sinf / nHill: curve fit; for HeLa-ACE2 Total Cell Efficacy (Sinf, note + or -): infected HeLa-ACE2 total cell count
[2] = tested on: uninfected HeLa-ACE2 cells; conditions: Hela-ACE2 Uninfected Cell Toxicity; for S0 / Sinf / nHill: curve fit; for qAC50: relation in column qAC50 Mode, unit not given
SARS-CoV-2 [3] = conditions: for Data Mode: Hela-ACE2 % Positive SARS-CoV-2; for S0 / Sinf / nHill: Hela-ACE2 % Positive SARS-CoV-2, curve fit
SARS-CoV-2 [4] = test: microbe, parasite or virus in culture; conditions: for AC50: Severe acute respiratory syndrome coronavirus 2, HeLa-ACE2, read-out: Log AC50 (converted)
HeLa-ACE2 cells [5] = test: cells; conditions: Homo sapiens; for AC50: HeLa-ACE2, read-out: Log AC50 (converted)
in vitro [6] = conditions: human, uninfected HeLa-ACE2 cells
in vitro [7] = conditions: human, microsomes, pH 7.4
PL^pro = PL^pro (Severe acute respiratory syndrome coronavirus 2, UniProt P0DTD1); conditions: 20 μM compound, 5 μM enzyme, average of triplicates with SD
physchem [8] = conditions: 25 °C, kinetic from dmso stock
[9] = Mouse liver microsomal stability assay; conditions: CD1, mouse, liver microsomes, pH 7.4
[10] = Human liver microsomal stability assay; conditions: human, liver microsomes, pH 7.4
in vitro [11] = conditions: PAMPA
physchem [12] = conditions: pH 7.4
in vitro [13] = conditions: CD1, mouse, microsomes, pH 7.4
Plasma stability = conditions: female, BALB/c, mouse, plasma, pH 7.4
[14] = female, BALB/c, mouse, 1 h, 2 μM, pH 7.4
[15] = Severe acute respiratory syndrome coronavirus 2, HeLa-ACE2, read-out: CoV-2 EC50
[16] = Severe acute respiratory syndrome coronavirus 2, HeLa-ACE2, read-out: qAC50
[17] = HeLa-ACE2, read-out: HeLa-ACE2 Total cells EC50
[18] = uninfected HeLa-ACE2 CC50, supplement summary
[19] = uninfected HeLa-ACE2 CC50, uninfected HeLa-ACE2 cells, average of triplicates

Row | Structure (SMILES) | Data Mode (HeLa-ACE2 cells [1]) | Data Mode [2] | qAC50 [2] | CoV2 Efficacy (delta S0:Sinf) (SARS-CoV-2 [3]; HeLa-ACE2) | Data Mode (SARS-CoV-2 [3]) | S0 (SARS-CoV-2 [3]) | Sinf (SARS-CoV-2 [3]) | nHill (SARS-CoV-2 [3]) | AC50 (SARS-CoV-2 [4]) [nM] | EC50 (HeLa-ACE2 cells [5]; [17]) [nM] | microsomal CLint at 0.5 μM (in vitro [7]) [µL/min/mg] | solubility kinetic at 24 h (physchem [8]; pH 2, aqueous buffer) [µg/mL] | solubility kinetic at 24 h (physchem [8]; pH 7.4, aqueous buffer) [µg/mL] | half-life at 0.5 μM [9] [min] | half-life at 0.5 μM [10] [min] | Papp at 5 h, 10 μM (in vitro [11]) [×10⁻⁶ cm/s] | chromatographic logD (physchem [12]) | microsomal CLint at 0.5 μM (in vitro [13]) [µL/min/mg] | half-life at 2 μM (Plasma stability) [h] | plasma stability remaining 60 min [14] [%] | other results
1 | Cc1cccc(/C=N/Nc2cc(N3CCOCC3)nc(OCCc3ccccn3)n2)c1 [Apilimod, reference compound] | inactive | decreasing | 5.705e-6 | 96.257 | decreasing | 0.02088 | -96.2358 | 1.796 | 25.6 | > 2400 | – | – | – | – | – | – | – | – | – | – | S0 [2]: -7.369; Sinf [2]: -100; nHill [2]: 1.671; SI (average CC50/average EC50) (SARS-CoV-2 [3]; supplement summary): 222.534; EC50 (SARS-CoV-2 [4]; [15]): 26 nM; EC50 (SARS-CoV-2 [4]; [16]): 25.6 nM; EC50 (HeLa-ACE2 cells [5]; HeLa-ACE2, read-out: qAC50): > 2400 nM; AC50 at 24 h (in vitro [6]): 5700 nM; CC50 at 24 h (in vitro [6]; [18]): 5700 nM
2 | COc1ccc(CNC(=O)C2CCN(Cc3cccc4ccccc34)CC2)cc1 [Compound 1] | – | – | – | – | – | – | – | – | – | – | 117 | > 24.9 | > 21.8 | 18.9 | 23.7 | 1 | 4.18 | 146 | 4.44 | 43.36 | ΔT m (PL^pro): 0.40 ± 0.08 °C
3 | CC(c1cccc2ccccc12)N1CCC(C(=O)NCc2ccc(Cl)cc2)CC1 (centres unmarked) [Compound 13] | increasing (weakly active) | decreasing | 1.885e-5 | 104.884 | decreasing | 4.884 | -100 | 3.857 | 3710 | > 9610 | 184 | > 24.4 | > 13.4 | 9.19 | 15.1 | 0.3 | 4.7 | 302 | 6.08 | 46.83 | S0 (HeLa-ACE2 cells [1]): -15.6144; Sinf (HeLa-ACE2 cells [1]): 100; nHill (HeLa-ACE2 cells [1]): 0.852; HeLa-ACE2 Total Cell Efficacy (Sinf, note + or -) (HeLa-ACE2 cells [1]): 0.852; ΔT m (PL^pro): 6.15 °C and 6.1 ± 0.4 °C; S0 [2]: -6.029; Sinf [2]: -100; nHill [2]: 4; SI (average CC50/average EC50) (SARS-CoV-2 [3]; HeLa-ACE2): 5; SI (average CC50/average EC50) (SARS-CoV-2 [3]; supplement summary): 5.083; Tags (tier) (SARS-CoV-2 [3]; tier of the screening summary): 3 (EC50< 10 µM, Efficacy >40%, SI > 5 or CC50 not reached at maximum concentration tested); EC50 (SARS-CoV-2 [4]; [15]): 3710 nM; EC50 (SARS-CoV-2 [4]; Severe acute respiratory syndrome coronavirus 2, HeLa-ACE2, read-out: SARS-CoV-2 EC50): 3700 ± 500 nM; inhibition at 9.61 µM (SARS-CoV-2 [4]; Severe acute respiratory syndrome coronavirus 2, HeLa-ACE2, read-out: inhibition in the highest concentration tested): > 50%; EC50 (SARS-CoV-2 [4]; [16]): 3710 nM; AC50 (HeLa-ACE2 cells [5]): > 9610 nM; EC50 (HeLa-ACE2 cells [5]; HeLa-ACE2, read-out: qAC50): > 9610 nM; AC50 at 24 h (in vitro [6]): 18900 nM; CC50 at 24 h (in vitro [6]; [18]): 18900 nM; CC50 at 24 h (in vitro [6]; [19]): 18800 ± 200 nM
4 | COc1ccc(CNC(=O)[C@@H]2CCN([C@@H](C)c3cccc4ccccc34)C2)cc1 [Compound 15] | – | – | – | – | – | – | – | – | – | – | 173 | > 23.9 | > 19.1 | 3.74 | 16.1 | 0.46 | 4.24 | 742 | 19.3 | 79.94 | ΔT m (PL^pro): 0.40 ± 0.06 °C
5 | COc1ccc(CC(=O)NC2CCN([C@@H](C)c3cccc4ccccc34)CC2)cc1 [Compound 7] | – | – | – | – | – | – | – | – | – | – | 205 | > 24.8 | > 15.9 | 7.33 | 13.5 | 1.03 | 4.27 | 378 | 116 | 95.21 | –
6 | COc1ccc(C[C@H](N)C(=O)N[C@H]2[C@@H](O)[C@H](n3cnc4c(N(C)C)ncnc43)O[C@@H]2CO)cc1 [Puromycin dihydrochloride, reference compound] | decreasing | decreasing | 5.784e-7 | 109.643 | decreasing | 10.0167 | -99.6259 | 4 | 381 | 1140 | – | – | – | – | – | – | – | – | – | – | S0 (HeLa-ACE2 cells [1]): -17.6223; Sinf (HeLa-ACE2 cells [1]): -98.1852; nHill (HeLa-ACE2 cells [1]): 4; HeLa-ACE2 Total Cell Efficacy (Sinf, note + or -) (HeLa-ACE2 cells [1]): 4.000; S0 [2]: -1.04; Sinf [2]: -99.1112; nHill [2]: 3.073; SI (average CC50/average EC50) (SARS-CoV-2 [3]; supplement summary): 1.518; EC50 (SARS-CoV-2 [4]; [15]): 381 nM; EC50 (SARS-CoV-2 [4]; [16]): 381 nM; AC50 (HeLa-ACE2 cells [5]): 1140 nM; EC50 (HeLa-ACE2 cells [5]; HeLa-ACE2, read-out: qAC50): 1140 nM; AC50 at 24 h (in vitro [6]): 578 nM; CC50 at 24 h (in vitro [6]; [18]): 578 nM
7 | CCC(CC)COC(=O)[C@H](C)N[P@](=O)(OC[C@H]1O[C@@](C#N)(c2ccc3c(N)ncnn23)[C@H](O)[C@@H]1O)Oc1ccccc1 [Remdesivir, reference compound] | increasing | decreasing | 2.1501e-6 | 101.769 | decreasing | 1.9121 | -99.8572 | 1.898 | 95.2 | 102 | – | – | – | – | – | – | – | – | – | – | S0 (HeLa-ACE2 cells [1]): -15.3429; Sinf (HeLa-ACE2 cells [1]): 34.6571; nHill (HeLa-ACE2 cells [1]): 2.142; HeLa-ACE2 Total Cell Efficacy (Sinf, note + or -) (HeLa-ACE2 cells [1]): 2.142; S0 [2]: 13.7985; Sinf [2]: -53.8717; nHill [2]: 1.539; SI (average CC50/average EC50) (SARS-CoV-2 [3]; supplement summary): 22.589; EC50 (SARS-CoV-2 [4]; [15]): 95 nM; EC50 (SARS-CoV-2 [4]; [16]): 95.2 nM; AC50 (HeLa-ACE2 cells [5]): 102 nM; EC50 (HeLa-ACE2 cells [5]; HeLa-ACE2, read-out: qAC50): 102 nM; AC50 at 24 h (in vitro [6]): 2150 nM; CC50 at 24 h (in vitro [6]; [18]): 2150 nM
8 | C[C@@H](c1cccc2ccccc12)N1CCC(C(=O)NCc2ccncc2)CC1 (racemic) [Compound 10] | inactive | inactive | > 3.984e-5 | 103.533 | decreasing (weakly active) | 3.533 | -100 | 4 | > 9610 | > 9610 | 75.6 | > 17.3 | > 31 | 25.3 | 36.7 | 1.01 | 3.32 | 110 | – | 97.19 | ΔT m (PL^pro): 4.65 °C and 4.6 ± 0.1 °C; EC50 (SARS-CoV-2 [4]; Severe acute respiratory syndrome coronavirus 2, HeLa-ACE2, read-out: SARS-CoV-2 EC50, HeLa-ACE2 cells, average of triplicates): > 9610 nM; EC50 (SARS-CoV-2 [4]; Severe acute respiratory syndrome coronavirus 2, HeLa-ACE2, read-out: qAC50, Hela-ACE2 % Positive SARS-CoV-2, relation in column qAC50 Mode, unit inferred): > 9610 nM; EC50 (HeLa-ACE2 cells [5]; HeLa-ACE2, read-out: qAC50): > 9610 nM; CC50 at 24 h (in vitro [6]; [18]): > 39800 nM; CC50 at 24 h (in vitro [6]; [19]): > 39800 nM
9 | COc1ccc(CNC(=O)[C@@H]2CCN([C@H](C)c3cccc4ccccc34)C2)cc1 (stereo in doubt) [Compound 18] | – | – | – | – | – | – | – | – | – | – | 212 | > 25.2 | > 19.8 | 4.76 | 13.1 | 0.56 | 4.24 | 582 | 7.7 | 56.69 | –
10 | COc1ccc(CNC(=O)[C@H]2CCN([C@H](C)c3cccc4ccccc34)C2)cc1 [Compound 16] | – | – | – | – | – | – | – | – | – | – | 254 | > 24.6 | > 19.5 | 10.4 | 10.9 | 0.53 | 4.24 | 267 | 28.9 | 88.71 | ΔT m (PL^pro): 0.40 ± 0.08 °C
